Assay results: patent US20110039783A1, “PEPTIDE HAVING HYPOTENSIVE ACTIVITY” (DAIICHI SANKYO COMPANY LIMITED, priority 2007, published 2011)
Where no end group is shown, it is not given here. [ ]: non-standard residue; d: D form. Cha = N[C@@H](CC1CCCCC1)C(=O)O

Test system: blood pressure of anesthetized Sprague-Dawley IGS male rats
Experiment: Hypotensive activity in anesthetized rats, invasive blood pressure measurement after intravenous administration
Format: in vivo, rat
Conditions: for Hypotensive activity (dose/rat) 10 nmol / Hypotensive activity (dose/rat) 30 nmol / Hypotensive activity (dose/rat) 100 nmol: anesthetized rats, intravenous; for Hypotensive activity (dose/rat) 10 nmol: 10 nmol/rat; for Hypotensive activity (dose/rat) 30 nmol: 30 nmol/rat; for Hypotensive activity (dose/rat) 100 nmol: 100 nmol/rat; for dose dependence of hypotensive activity: anesthetized rats, 10, 30, 100 nmol/rat
Experimental: 50 mg/kg pentobarbital sodium was intraperitoneally administered to 8- to 10-week-old Sprague-Dawley IGS male rats (Charles River Laboratories Japan, Inc.) for anesthesia. Thereafter, a tracheal cannula (PE 250), a femoral vein cannula (PE50), and a femoral artery cannula (PESO) were inserted into each rat. The femoral artery cannula was connected with a pressure transducer (PE23XL; manufactured by Nihon Kohden Corporation), and an apparatus formed by incorporating a blood pressure measurement unit (AP-641G; manufactured by Nihon Kohden Corporation) and an instantaneous heart rate measurement unit (AT-601G; manufactured by Nihon Kohden Corporation) into a multi-purpose preamplifier (RP-6004; manufactured by Nihon Kohden Corporation) was used to record the blood pressure and heart rate of each rat. The blood pressure was calibrated using a mercury manometer included in a stand-type electromanometer (MP-25S; manufactured by Nihon Kohden Corporation). The recording paper was adjusted, such that 10 mm or 20 mm on the recording paper corresponded to 100 mmHg.
Each peptide was dissolved in a concentration of 1 mM or 10 mM in a 0.1% acetic acid solution to prepare a peptide solution. Thereafter, depending on dose, it was diluted with a normal saline containing 0.1% bovine serum albumin (Fr.V). In the case of the dose of 10 nmol/rat, a 1 mM peptide solution was 10 times diluted, and 100 μl of the diluted solution was administered. In the case of the dose of 30 nmol/rat, a 1 mM peptide solution was 10 times diluted, and 300 μL, of the diluted solution was administered. In the case of the dose of 100 nmol/rat, a 10 mM peptide solution was 10 times diluted, and 100 μL of the diluted solution was administered. Each peptide was intravenously administered via the femoral vein cannula, and the systolic blood pressure, diastolic blood pressure, and heart rate were then measured.
Various HC021 derivative peptides were synthesized in accordance with Example 1, and such peptide was then administered to each rat at a dose of 10 nmol/rat, 30 nmol/rat, or 100 mol/rat by the method described in Example 2. Thereafter, the hypotensive activity of each derivative peptide was measured. […] The strength of such activity was determined using a median of activity in repeated experiments. In addition, in order to make a comparison among the activities of various derivative peptides, the strength of hypotensive activity was defined as follows.
Strength of Hypotensive Activity
Extremely strong activity (+++): A decrease in systolic blood pressure is 30 mmHg or more, and the time required for recovery is 5 minutes or more.
Strong activity (++): A decrease in systolic blood pressure is 20 mmHg or more and less than 30 mmHg, or the time required for recovery is less than 5 minutes.
Activity observed (+): A decrease in systolic blood pressure is less than 20 mmHg.
Activity not observed (−)
Various HC021 peptide sequence-substituted products were synthesized in accordance with Example 1, and their hypotensive activity was then measured according to the method of Example 3.

Substance | Hypotensive activity (dose/rat) 10 nmol (Table 2) | Hypotensive activity (dose/rat) 30 nmol (Table 2) | Hypotensive activity (dose/rat) 100 nmol (Table 2) | Hypotensive activity (dose/rat) 10 nmol (Table 3) | Hypotensive activity (dose/rat) 30 nmol (Table 3) | also measured
NRDLFFRRLQAYFK (not fully specified (C-terminus)) [Compound 15] | − | − | + (Activity observed (+): A decrease in systolic blood pressure is less than 20 mmHg.) |  |  | 
NRDLFFRRLQAYAK-amide (NRDLFFRRLQAYAK-NH2) [Compound 42] |  |  |  | − | − | Hypotensive activity (dose/rat) 100 nmol (Table 3): ++ (Strong activity (++): A decrease in systolic blood pressure is 20 mmHg or more and less than 30 mmHg, or the time required for recovery is less than 5 minutes.)
LFFRRLQAY-amide (LFFRRLQAY-NH2) [Compound 25] |  | − | + (Activity observed (+): A decrease in systolic blood pressure is less than 20 mmHg.) |  |  | 
LFFRSLQAYFK-amide (LFFRSLQAYFK-NH2) [Compound 43] |  |  |  | − | ++ (Strong activity (++): A decrease in systolic blood pressure is 20 mmHg or more and less than 30 mmHg, or the time required for recovery is less than 5 minutes.) | 
RRLQAYFK-amide (RRLQAYFK-NH2) [Compound 22] |  | − | − |  |  | 
LFFRRLQAYFKASASADYEEQKNSFHNYLK- amide [Compound 49] |  |  |  | +++ (Extremely strong activity (+++): A decrease in systolic blood pressure is 30 mmHg or more, and the time required for recovery is 5 minutes or more.) |  | 
ATLGSEDTWKPLSNPRNRELFFRSLQAYFK-amide [Compound 37] |  |  |  | − | − | Hypotensive activity (dose/rat) 100 nmol (Table 3): ++ (Strong activity (++): A decrease in systolic blood pressure is 20 mmHg or more and less than 30 mmHg, or the time required for recovery is less than 5 minutes.)
NRELFFRRLQAYFK-amide (NRELFFRRLQAYFK-NH2) [Compound 41] |  |  |  | − | ++ (Strong activity (++): A decrease in systolic blood pressure is 20 mmHg or more and less than 30 mmHg, or the time required for recovery is less than 5 minutes.) | 
ATVRNEDKWKPLNNPRNRDLFFRRLQAYF-amide [Compound 10] | − | ++ (Strong activity (++): A decrease in systolic blood pressure is 20 mmHg or more and less than 30 mmHg, or the time required for recovery is less than 5 minutes.) |  |  |  | 
LFFRRLQAHFK-amide (LFFRRLQAHFK-NH2) [Compound 47] |  |  |  | − | − | Hypotensive activity (dose/rat) 100 nmol (Table 3): +++ (Extremely strong activity (+++): A decrease in systolic blood pressure is 30 mmHg or more, and the time required for recovery is 5 minutes or more.)
LFFRRLQAYFKGRGLDLGTFPNPFPTNENPR-amide [Compound 30] | +++ (Extremely strong activity (+++): A decrease in systolic blood pressure is 30 mmHg or more, and the time required for recovery is 5 minutes or more.) |  |  | +++ (Extremely strong activity (+++): A decrease in systolic blood pressure is 30 mmHg or more, and the time required for recovery is 5 minutes or more.) |  | 
ATLRNEDTWKPLSNPRNRDLFFRRLQAYFK-amide [Compound 34] |  |  |  | − | + (Activity observed (+): A decrease in systolic blood pressure is less than 20 mmHg.) | 
acetyl-NRDLFFRRLQAYFK-amide (Ac-NRDLFFRRLQAYFK-NH2) [Compound 32] |  | ++ (Strong activity (++): A decrease in systolic blood pressure is 20 mmHg or more and less than 30 mmHg, or the time required for recovery is less than 5 minutes.) |  |  |  | 
LFFRRLQAYFK [Compound 18] |  | − | ++ (Strong activity (++): A decrease in systolic blood pressure is 20 mmHg or more and less than 30 mmHg, or the time required for recovery is less than 5 minutes.) |  |  | 
pyr-EDKWKPLNNPRNRDLFFRRLQAYFK-amide (not fully specified; N-terminal pyroglutamate, C-terminal amide) [Compound 33] | ++ (Strong activity (++): A decrease in systolic blood pressure is 20 mmHg or more and less than 30 mmHg, or the time required for recovery is less than 5 minutes.) |  |  |  |  | 
RLQAYFK-amide (RLQAYFK-NH2) [Compound 23] |  | − | − |  |  | 
DLFFRRLQAYFK-amide (DLFFRRLQAYFK-NH2) [Compound 17] | − | ++ (Strong activity (++): A decrease in systolic blood pressure is 20 mmHg or more and less than 30 mmHg, or the time required for recovery is less than 5 minutes.) | +++ (Extremely strong activity (+++): A decrease in systolic blood pressure is 30 mmHg or more, and the time required for recovery is 5 minutes or more.) |  |  | dose dependence of hypotensive activity: enhanced their hypotensive activity in a dose-dependent manner
LFERRLQAYFKNGAEDESAEAFPLEF-amide (LFERRLQAYFKNGAEDESAEAFPLEF-NH2) [Compound 48] |  |  |  | +++ (Extremely strong activity (+++): A decrease in systolic blood pressure is 30 mmHg or more, and the time required for recovery is 5 minutes or more.) |  | 
LFFRRLQAYFK-amide (LFFRRLQAYFK-NH2) [Compound 19] | + (Activity observed (+): A decrease in systolic blood pressure is less than 20 mmHg.) | ++ (Strong activity (++): A decrease in systolic blood pressure is 20 mmHg or more and less than 30 mmHg, or the time required for recovery is less than 5 minutes.) | +++ (Extremely strong activity (+++): A decrease in systolic blood pressure is 30 mmHg or more, and the time required for recovery is 5 minutes or more.) | + (Activity observed (+): A decrease in systolic blood pressure is less than 20 mmHg.) | ++ (Strong activity (++): A decrease in systolic blood pressure is 20 mmHg or more and less than 30 mmHg, or the time required for recovery is less than 5 minutes.) | Hypotensive activity (dose/rat) 100 nmol (Table 3): +++ (Extremely strong activity (+++): A decrease in systolic blood pressure is 30 mmHg or more, and the time required for recovery is 5 minutes or more.); dose dependence of hypotensive activity: enhanced their hypotensive activity in a dose-dependent manner
NRDLFFRRLQAYFKG [Compound 11] | − | − | + (Activity observed (+): A decrease in systolic blood pressure is less than 20 mmHg.) |  |  | 
ATVRNEDKWKPLNNPRNRDLFFRRLQAYF [Compound 9] |  | − | +++ (Extremely strong activity (+++): A decrease in systolic blood pressure is 30 mmHg or more, and the time required for recovery is 5 minutes or more.) |  |  | 
GATVRNEDKWKPLNNPRNRDLFFRRLQAYFK-amide [Compound 7] | − | ++ (Strong activity (++): A decrease in systolic blood pressure is 20 mmHg or more and less than 30 mmHg, or the time required for recovery is less than 5 minutes.) |  |  |  | 
NRDLFFRRLQAYFKGR [Compound 13] |  | − | ++ (Strong activity (++): A decrease in systolic blood pressure is 20 mmHg or more and less than 30 mmHg, or the time required for recovery is less than 5 minutes.) |  |  | 
LFFRRLQA(Cha)FK-amide (LFFRRLQA[Cha]FK-NH2; N-terminus assumed; SMILES CC(C)C[C@H](NC(=O)[C@H](CCCNC(=N)N)NC(=O)[C@H](CCCNC(=N)N)NC(=O)[C@H](Cc1ccccc1)NC(=O)[C@H](Cc1ccccc1)NC(=O)[C@@H](N)CC(C)C)C(=O)N[C@@H](CCC(N)=O)C(=O)N[C@@H](C)C(=O)N[C@@H](CC1CCCCC1)C(=O)N[C@@H](Cc1ccccc1)C(=O)N[C@@H](CCCCN)C(N)=O) [Compound 45] |  |  |  | + (Activity observed (+): A decrease in systolic blood pressure is less than 20 mmHg.) | +++ (Extremely strong activity (+++): A decrease in systolic blood pressure is 30 mmHg or more, and the time required for recovery is 5 minutes or more.) | 
